Holding throughout (format): biochemical
The target of one experiment is MAO-A enzyme (Homo sapiens (Human), UniProt P21397). The experiment can be described thus: Measurement of MAO-A inhibitory activity (MAO-Glo Assay).
The next experiment has as its target MAO-B enzyme (Homo sapiens (Human), UniProt P27338). The experiment can be described thus: Measurement of MAO-B inhibitory activity (MAO-Glo Assay).
Another experiment deals with human LSD1(172-833) (Homo sapiens (Human), UniProt O60341). The experiment can be described thus: Measurement of LSD1 inhibitory activity (time-resolved fluorescence, biotin-histone H3 mono methylated K4 peptide).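 Further: after the compound–enzyme step, substrate reaction 5 min at room temperature in Tris-HCl pH 8.0 with BSA and DTT, halted by 2-PCPA, detected with europium anti-histone H3 antibody plus Streptavidin-XL665.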 To be noted: 60 min preincubation with enzyme at room temperature.

Where a name gives a salt, the structure may show the parent alone. Read-outs that look alike come from different tables or passages of the source.

Sequence of MAO-A enzyme (P21397 whole entry): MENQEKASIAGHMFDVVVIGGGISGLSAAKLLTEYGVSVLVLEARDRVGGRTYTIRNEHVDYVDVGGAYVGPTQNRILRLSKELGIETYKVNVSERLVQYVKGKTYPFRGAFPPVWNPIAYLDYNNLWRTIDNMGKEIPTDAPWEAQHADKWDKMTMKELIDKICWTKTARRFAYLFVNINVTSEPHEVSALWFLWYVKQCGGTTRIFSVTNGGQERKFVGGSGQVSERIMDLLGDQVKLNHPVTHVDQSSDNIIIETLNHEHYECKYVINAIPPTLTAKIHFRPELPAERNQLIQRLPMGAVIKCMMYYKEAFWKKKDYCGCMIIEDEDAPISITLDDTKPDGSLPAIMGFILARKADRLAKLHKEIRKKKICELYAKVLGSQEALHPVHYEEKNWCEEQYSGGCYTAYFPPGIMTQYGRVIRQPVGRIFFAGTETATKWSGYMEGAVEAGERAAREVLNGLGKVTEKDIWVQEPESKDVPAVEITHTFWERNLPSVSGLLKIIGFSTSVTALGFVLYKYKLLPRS
Sequence of MAO-B enzyme (P27338 whole entry): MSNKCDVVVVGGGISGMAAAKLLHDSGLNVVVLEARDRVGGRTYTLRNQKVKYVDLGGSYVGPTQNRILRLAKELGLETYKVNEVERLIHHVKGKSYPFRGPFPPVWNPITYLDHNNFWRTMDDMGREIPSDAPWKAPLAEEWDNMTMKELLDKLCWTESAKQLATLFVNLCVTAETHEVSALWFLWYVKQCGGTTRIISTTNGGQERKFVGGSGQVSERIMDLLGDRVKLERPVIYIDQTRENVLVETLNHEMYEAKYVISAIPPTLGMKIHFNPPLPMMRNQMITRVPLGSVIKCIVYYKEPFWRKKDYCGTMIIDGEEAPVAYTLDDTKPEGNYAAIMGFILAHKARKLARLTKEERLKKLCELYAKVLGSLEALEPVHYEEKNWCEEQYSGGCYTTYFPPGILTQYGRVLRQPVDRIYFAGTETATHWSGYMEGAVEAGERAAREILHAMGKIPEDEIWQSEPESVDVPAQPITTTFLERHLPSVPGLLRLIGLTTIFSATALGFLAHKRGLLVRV
Protocol for MAO-A enzyme: The MAO-A inhibitory activity evaluation described below followed the protocol of MAO-Glo (registered trademark) Assay of Promega KK.
A test compound dissolved in DMSO was added to a reaction solution (100 mM HEPES (pH 7.5), 5% glycerol) containing MAO-A enzyme (Sigma-Aldrich Co. LLC.), and the mixture was reacted at room temperature for 15 min. MAO substrate (Promega KK) was added to start the reaction. After reaction at room temperature for 60 min, Luciferine detection reagent (Promega KK) was added to terminate the reaction. After reaction at room temperature for 20 min with stirring, the luminescence was measured by Envision (PerkinElmer). The MAO-A inhibitory rate (%) of the test compound was calculated by the following formula. inhibitory rate (%)=(1−(test compound count−blank)÷(control−blank))×100
The count of the MAO-A enzyme reaction mixture under compound non-addition conditions is indicated as control, and the count under compound non-addition and MAO-A enzyme non-addition conditions is indicated as blank.
Protocol for MAO-B enzyme: The MAO-B inhibitory activity evaluation described below followed the protocol of MAO-Glo (registered trademark) Assay of Promega KK.
A test compound dissolved in DMSO was added to a reaction solution (100 mM HEPES (pH 7.5), 5% glycerol, 10% DMSO) containing MAO-B enzyme (Sigma-Aldrich Co. LLC.), and the mixture was reacted at room temperature for 15 min. MAO substrate (Promega KK) was added to start the reaction. After reaction at room temperature for 60 min, Luciferine detection reagent (Promega KK) (50 μL) was added to terminate the reaction. After reaction at room temperature for 20 min with stirring, the luminescence was measured by Envision (PerkinElmer). The MAO-B inhibitory rate (%) of the test compound was calculated by the following formula. inhibitory rate (%)=(1−(test compound count−blank)÷(control−blank))×100
The count of the MAO-B enzyme reaction mixture under compound non-addition conditions is indicated as control, and the count under compound non-addition and MAO-B enzyme non-addition conditions is indicated as blank.
Protocol for human LSD1(172-833): A test compound dissolved in DMSO was added by to a reaction solution (50 mM Tris-HCl (pH 8.0), 0.1% BSA, 1 mM DTT) containing LSD1 enzyme, and the mixture was reacted at room temperature for 60 min. […] After reaction at room temperature for 5 min, 2-PCPA solution was added to terminate the reaction. A detection solution (800 mM potassium fluoride, 0.1% BSA) containing europium-labeled anti-histone H3 antibody (Wako Pure Chemical Industries, Ltd.) and Streptavidin-XL665 (Cisbio) was further added, and the mixture was left standing for 60 min. […] The LSD1 inhibitory rate (%) of the test compound was calculated by the following formula. inhibitory rate (%)=(1−(test compound count−blank)÷(control−blank))×100
The count of the LSD1 enzyme reaction mixture under compound non-addition conditions is indicated as control, and the count under compound non-addition and LSD1 enzyme non-addition conditions is indicated as blank. A concentration necessary for achieving 50% inhibitory rate was taken as ICH value.

Consider `Cc1nnc(NC(=O)c2csc(C3CC3NCC3CCOCC3)c2)s1` (single isomer, unassigned) [Example 40, dihydrochloride], for which the IC50 – broadly, the point on the concentration scale where inhibition reaches its midpoint – is > 100 µM at MAO-A enzyme (dihydrochloride), > 100 µM at MAO-B enzyme and < 0.1 µM against human LSD1(172-833).
On to `NC1CCC(N[C@@H]2C[C@H]2c2cc(C(=O)NC3CCC(F)(F)CC3)cs2)CC1` (single isomer, unassigned) [Example 45, dihydrochloride], for which the results for the IC50 against MAO-A enzyme, at MAO-B enzyme and on human LSD1(172-833) were > 100 µM, > 100 µM and < 0.1 µM, respectively.
`O=C(NC1CCC(F)(F)CC1)c1csc([C@@H]2C[C@H]2NC2CCOCC2)c1` [Example 44, N-(4,4-difluorocyclohexyl)-5-((1R,2R)-2-(tetrahydro-2H-pyran-4-ylamino)cyclopropyl)thiophene-3-carboxamide hydrochloride]: the IC50 against MAO-A enzyme was > 100 µM; on MAO-B enzyme it was 100 µM; against human LSD1(172-833) it was < 0.1 µM.
For `N[C@H]1CC[C@H](N[C@@H]2C[C@H]2c2cc(C(=O)NC3CCC(F)(F)CC3)cs2)CC1` [Example 46, 5-((1R,2R)-2-(trans-(4-aminocyclohexyl)amino)cyclopropyl)-N-(4,4-difluorocyclohexyl)thiophene-3-carboxamide dihydrochloride], the IC50 on MAO-A enzyme is > 100 µM; against MAO-B enzyme, > 100 µM; against human LSD1(172-833), < 0.1 µM.
In the case of `O=C(NC1CCOCC1)c1csc([C@@H]2C[C@H]2NC2CCC(F)(F)CC2)c1` [Example 47, 5-((1R,2R)-2-((4,4-difluorocyclohexyl)amino)cyclopropyl)-N-(tetrahydro-2H-pyran-4-yl)thiophene-3-carboxamide hydrochloride], the IC50 against MAO-A enzyme is > 100 µM; on MAO-B enzyme it was > 100 µM; on human LSD1(172-833) it was < 0.1 µM.
For the molecule `Cc1nnc(NC(=O)c2csc([C@@H]3C[C@H]3NC3CCN(C4CC4)CC3)c2)s1` [Example 48, 5-((1R,2R)-2-((1-cyclopropylpiperidin-4-yl)amino)cyclopropyl)-N-(5-methyl-1,3,4-thiadiazol-2-yl)thiophene-3-carboxamide dihydrochloride], the IC50 at MAO-A enzyme was 31 µM; against MAO-B enzyme it was > 100 µM; on human LSD1(172-833), < 0.1 µM.
In the same order, the values of `Cc1nnc(NC(=O)c2csc([C@@H]3C[C@H]3NC3CCOCC3)c2)s1` [Example 49, N-(5-methyl-1,3,4-thiadiazol-2-yl)-5-((1R,2R)-2-(tetrahydro-2H-pyran-4-ylamino)cyclopropyl)thiophene-3-carboxamide hydrochloride] are > 100 µM, > 100 µM and < 0.1 µM.
In the same order, the values of `Cc1ncc(NC(=O)c2csc([C@@H]3C[C@H]3NC3CCOCC3)c2)s1` [Example 50, N-(2-methyl-1,3-thiazol-5-yl)-5-((1R,2R)-2-(tetrahydro-2H-pyran-4-ylamino)cyclopropyl)thiophene-3-carboxamide hydrochloride] are > 100 µM, > 100 µM and < 0.1 µM.
With `O=C(NC1CCC(F)(F)CC1)c1csc([C@@H]2C[C@H]2NCC2CCOCC2)c1` [Example 51, N-(4,4-difluorocyclohexyl)-5-((1R,2R)-2-((tetrahydro-2H-pyran-4-ylmethyl)amino)cyclopropyl)thiophene-3-carboxamide hydrochloride], the IC50 against MAO-A enzyme is > 100 µM; against MAO-B enzyme it was > 100 µM; against human LSD1(172-833), < 0.1 µM.
With `O=C(NC1CCN(CC(F)(F)F)CC1)c1csc([C@@H]2C[C@H]2NCC2CCOCC2)c1` [Example 52, 5-((1R,2R)-2-((tetrahydro-2H-pyran-4-ylmethyl)amino)cyclopropyl)-N-(1-(2,2,2-trifluoroethyl)piperidin-4-yl)thiophene-3-carboxamide hydrochloride], the IC50 at MAO-A enzyme was > 100 µM; at MAO-B enzyme, > 100 µM; against human LSD1(172-833), < 0.1 µM.
In the case of `Cc1ncc(NC(=O)c2csc([C@@H]3C[C@H]3NCC3CCOCC3)c2)s1` [Example 53, N-(2-methyl-1,3-thiazol-5-yl)-5-((1R,2R)-2-((tetrahydro-2H-pyran-4-ylmethyl)amino)cyclopropyl)thiophene-3-carboxamide dihydrochloride], the figures for the IC50 against MAO-A enzyme, against MAO-B enzyme and on human LSD1(172-833) were 61 µM, 96 µM and < 0.1 µM, respectively.
In the same order, the values of `Cc1nn(C)cc1NC(=O)c1csc([C@@H]2C[C@H]2NCC2CCOCC2)c1` [Example 54, N-(1,3-dimethyl-1H-pyrazol-4-yl)-5-((1R,2R)-2-((tetrahydro-2H-pyran-4-ylmethyl)amino)cyclopropyl)thiophene-3-carboxamide dihydrochloride] are > 100 µM, > 100 µM and < 0.1 µM.
In the same order, the values of `Cc1c(NC(=O)c2csc([C@@H]3C[C@H]3NCC3CCOCC3)c2)cnn1C` [Example 55, N-(1,5-dimethyl-1H-pyrazol-4-yl)-5-((1R,2R)-2-((tetrahydro-2H-pyran-4-ylmethyl)amino)cyclopropyl)thiophene-3-carboxamide dihydrochloride] are > 100 µM, > 100 µM and < 0.1 µM.
As to `O=C(NC1CC1)c1csc([C@@H]2C[C@H]2NCC2CCOCC2)c1` [Example 56, N-cyclopropyl-5-((1R,2R)-2-((tetrahydro-2H-pyran-4-ylmethyl)amino)cyclopropyl)thiophene-3-carboxamide hydrochloride], the IC50 was > 100 µM on MAO-A enzyme, > 100 µM against MAO-B enzyme and < 0.1 µM against human LSD1(172-833).
As for `Cc1nnc(NC(=O)c2csc([C@@H]3C[C@H]3NCC3CCN(CCC(=O)O)CC3)c2)s1` [Example 60, 3-(4-((((1R,2R)-2-(4-((5-methyl-1,3,4-thiadiazol-2-yl)carbamoyl)-2-thienyl)cyclopropyl)amino)methyl)piperidin-1-yl)propanoic acid trihydrochloride], the concentration for half-maximal inhibition (IC50) at MAO-A enzyme was > 100 µM; against MAO-B enzyme it was > 100 µM; at human LSD1(172-833), < 0.1 µM.
As for `Cc1nnc(NC(=O)c2cc([C@H]3C[C@@H]3NCC3CCOCC3)cs2)s1` [Example 74, N-(5-methyl-1,3,4-thiadiazol-2-yl)-4-((1R,2S)-2-((tetrahydro-2H-pyran-4-ylmethyl)amino)cyclopropyl)thiophene-2-carboxamide hydrochloride], the IC50 at MAO-A enzyme was > 100 µM; against MAO-B enzyme, > 100 µM; at human LSD1(172-833), < 0.1 µM.
On to `O=C(NC1CCC(F)(F)CC1)c1csc([C@@H]2C[C@H]2NC2CCN(C3CC3)CC2)c1` [Example 80, 5-((1R,2R)-2-((1-cyclopropylpiperidin-4-yl)amino)cyclopropyl)-N-(4,4-difluorocyclohexyl)thiophene-3-carboxamide hydrochloride], for which the IC50 is > 100 µM on MAO-A enzyme, > 100 µM against MAO-B enzyme and < 0.1 µM at human LSD1(172-833).
Regarding `Cc1cc(NC(=O)c2csc([C@@H]3C[C@H]3NCC3CCOCC3)c2)no1` [Example 81, N-(5-methyl-1,2-oxazol-3-yl)-5-((1R,2R)-2-((tetrahydro-2H-pyran-4-ylmethyl)amino)cyclopropyl)thiophene-3-carboxamide hydrochloride], the IC50 was 36 µM against MAO-A enzyme, > 100 µM against MAO-B enzyme and < 0.1 µM on human LSD1(172-833).
On the same counts, the results for `CCn1cc(NC(=O)c2csc([C@@H]3C[C@H]3NCC3CCOCC3)c2)cn1` [Example 86, N-(1-ethyl-1H-pyrazol-4-yl)-5-((1R,2R)-2-((tetrahydro-2H-pyran-4-ylmethyl)amino)cyclopropyl)thiophene-3-carboxamide dihydrochloride] are 87 µM, > 100 µM and < 0.1 µM.
In the same order, the values of `CC(=O)N1CCC(N[C@@H]2C[C@H]2c2cc(C(=O)NC3CCC(F)(F)CC3)cs2)CC1` [Example 91, 5-((1R,2R)-2-((1-acetylpiperidin-4-yl)amino)cyclopropyl)-N-(4,4-difluorocyclohexyl)thiophene-3-carboxamide hydrochloride] are > 100 µM, > 100 µM and < 0.1 µM.
In the same order, the values of `O=C(NC1CCC(F)(F)CC1)c1csc([C@@H]2C[C@H]2NC2CCN(C(=O)C3CC3)CC2)c1` [Example 92, 5-((1R,2R)-2-((1-(cyclopropylcarbonyl)piperidin-4-yl)amino)cyclopropyl)-N-(4,4-difluorocyclohexyl)thiophene-3-carboxamide hydrochloride] are > 100 µM, > 100 µM and < 0.1 µM.
For `O=C(O)c1ccc(CN2CCC(CN[C@@H]3C[C@H]3c3cc(C(=O)NC4CCC(F)(F)CC4)cs3)CC2)cc1` [Example 101, 4-((4-((((1R,2R)-2-(4-((4,4-difluorocyclohexyl)carbamoyl)-2-thienyl)cyclopropyl)amino)methyl)piperidin-1-yl)methyl)benzoic acid dihydrochloride], the IC50 against MAO-A enzyme was > 100 µM; against MAO-B enzyme, > 100 µM; at human LSD1(172-833) it was < 0.1 µM.
As to `O=C(O)c1ccc(CN[C@@H]2C[C@H]2c2cc(C(=O)NC3CCC(F)(F)CC3)cs2)cc1` [Example 110, 4-((((1R,2R)-2-(4-((4,4-difluorocyclohexyl)carbamoyl)-2-thienyl)cyclopropyl)amino)methyl)benzoic acid], the results for the IC50 at MAO-A enzyme, on MAO-B enzyme and against human LSD1(172-833) were 49 µM, > 100 µM and < 0.1 µM, respectively.
On the same counts, the results for `O=C(NC1CCOCC1)c1csc([C@@H]2C[C@H]2NCC2CCC2)c1` [Example 112, 5-((1R,2R)-2-((cyclobutylmethyl)amino)cyclopropyl)-N-(tetrahydro-2H-pyran-4-yl)thiophene-3-carboxamide] are > 100 µM, > 100 µM and < 0.1 µM.

For the origin of these results see patent publication US9487511B2, “Cyclopropanamine compound and use thereof” (Takeda Pharmaceutical Company Limited, priority 2014, dated 2016).
